{"source": "patent US20060105361A1", "about": "“Donor yeast strain for transfer of genetic material” (priority 2004, published 2006)", "system": "wild-type strains", "assay": "Spot tests of yeast strains on SD-leu plates containing camptothecin and CuSO4", "assay_type": "cell-based, Saccharomyces cerevisiae", "procedure": "The mutant and wild-type TOP1 were cloned under the control of the copper-inducible CUP1 promoter. These plasmids were transformed into the MATa universal donor strain (J1361), the MATalpha deletion library wild-type strain (BY4742) and rad9 and rad50 deletion strains from the library. Transformation reactions were plated on SD-leu media and incubated for 3 days at 30° C. to allow colony growth. […] B. Transformants from A were grown overnight in liquid SD-leu media, equalized by OD, serially diluted and spotted onto SD-leu plates containing the indicated concentrations of CuSO4. Each panel is a group of three strains containing the vector, TOP1 or TOP1-T722A plasmids as indicated on the right. […] Spot tests shown at the bottom contain 5 μg/ml camptothecin."}
{"smiles": "CC[C@@]1(O)C(=O)OCc2c1cc1n(c2=O)Cc2cc3ccccc3nc2-1", "note": "[camptothecin]", "values": [{"measurement": "sensitivity (viability in spot test) of strains containing the TOP1-T722A plasmid", "setting": "5 μg/ml camptothecin, wild-type cells with CUP1-promoter TOP1-T722A plasmid, graded CuSO4", "result": "roughly additive effect of the TOP1-T722A mutant in conjunction with camptothecin"}, {"measurement": "sensitivity (viability in spot test) of strains containing the TOP1 plasmid", "setting": "5 μg/ml camptothecin, wild-type strain (BY4742) with CUP1-promoter TOP1 plasmid, graded CuSO4", "result": "only sensitive to the drug when Top1 is overexpressed by 100 μM copper"}, {"measurement": "viability of the library strain on plates containing camptothecin", "setting": "library strain is TOP1, relatively low doses of drug, no TOP1 overexpression", "result": "do not affect viability"}]}
